# Experimental data as given in US20030143215A1, “Carbonyl stress-ameliorating agents” (priority 1999, published 2003).
# Experiments:
# [1] = Incubation of sera with thiol compounds, production of AGE; conditions: sera from a normal person and patients with diabetes mellitus; a long period was required
# Source text: As described above, a decrease in concentration of redox coenzymes, such as GSH and NAD (P), is suspected to be the cause of AGE formation because of a decreased elimination of carbonyl compounds. […] Based on this theory, the present inventors tried to directly administer thiol compounds, such as GSH and cystein.
# [2] = in vitro; Miyata T., J. Am. Soc. Nephrol. 11: 1719-1725, 2000; cited from earlier work
# [3] = 400 μM methylglyoxal, 0-8 mM glutathione, PBS(-) pH7.4, 37° C., 0-24 hours; FIG. 1
# Procedure: The solutions were incubated at 37° C. Samples were taken after 0, 2, 4, 8, and 24 hours; and 40 μl of 2 M perchlorate, 40 μl of 1% o-phenylenediamine, and 100 μl of 200 μM glyoxal were added to 100 μl of each sample. The mixtures were stirred, and then incubated at 25° C. for one hour.
# [4] = Elimination of methylglyoxal from methylglyoxal solutions in the presence of glutathione and glyoxalase I; assay type: biochemical; conditions: 400 μM methylglyoxal, 4 mM glutathione, glyoxalase I 8-80 unit/ml, 37° C., 1 hour; FIG. 2
# Procedure: PBS(-) solutions were prepared, whose methylglyoxal concentration were 400 μM, glutathione concentration 4 mM, and the concentration of an enzyme having glyoxalase I activity were 8, 16, 40, and 80 unit/ml, respectively. The solutions were incubated at 37° C. A commercially available enzyme (Sigma) derived from yeast was used as the glyoxalase I. Samples were taken after 1 hour, and then methylglyoxal was quantified by the same method as in Example 1.
# [5] = Dicarbonyl compound elimination in mixed solutions containing three dicarbonyl compounds; assay type: biochemical; conditions: FIG. 4
# Procedure: PBS(-) solutions (pH7. 4) were prepared, whose concentrations of glyoxal, methylglyoxal, and 3-deoxyglucosone were all 200 μM, glutathione concentration were 0, 0.5, 1, or 5 mM, and glyoxalase I concentration were 0, 0.05, 0.1, 0.5, 1, or 2 unit/ml.
# [6] = Dicarbonyl compound elimination in solutions separately containing each dicarbonyl compound; assay type: biochemical; conditions: 100 μM dicarbonyl, glutathione 0-10 mM, glyoxalase I 0-10 unit/ml, 37° C., 1 hour; FIG. 5
# Procedure: PBS(-) solutions (pH 7.4) were prepared, whose glyoxal concentration were 100 μM, glutathione concentration 0, 0.1, 1, or 10 mM, and glyoxalase I concentration 0, 0.01, 0.1, 1, or 10 unit/ml. […] The same method was used for methylglyoxal and 3-deoxyglucosone in place of glyoxal.
Molecule,production of AGE in sera [1],trapping of carbonyl compounds methylglyoxal and glyoxal [2],other results
"N[C@@H](CS)C(=O)O [cystein, reference compound]",suppressed the production of AGE,–,–
N=C(N)NN [aminoguanidine],–,efficiently trap carbonyl compounds,–
CCCCNC(=N)NC(=N)N [buformin],–,efficiently trap carbonyl compounds,–
CN(C)C(=N)N=C(N)N [metformin],–,efficiently trap carbonyl compounds,–
N[C@@H](CCC(=O)N[C@@H](CS)C(=O)NCC(=O)O)C(=O)O [glutathione],suppressed the production of AGE,–,methylglyoxal trapping (residual rate of methylglyoxal) [3]: trapped by glutathione depending on the concentration of glutathione and incubation time
"glyoxalase I: commercially available enzyme (Sigma) derived from yeast, lactoyl GSH lyase (EC. 4.4.1.5) (protein, UniProt P50107 1-326, looked up) Glyoxalase I: MSTDSTRYPIQIEKASNDPTLLLNHTCLRVKDPARTVKFYTEHFGMKLLSRKDFEEAKFSLYFLSFPKDDIPKNKNGEPDVFSAHGVLELTHNWGTEKNPDYKINNGNEEPHRGFGHICFSVSDINKTCEELESQGVKFKKRLSEGRQKDIAFALGPDGYWIELITYSREGQEYPKGSVGNKFNHTMIRIKNPTRSLEFYQNVLGMKLLRTSEHESAKFTLYFLGYGVPKTDSVFSCESVLELTHNWGTENDPNFHYHNGNSEPQGYGHICISCDDAGALCKEIEVKYGDKIQWSPKFNQGRMKNIAFLKDPDGYSIEVVPHGLIA",–,–,"methylglyoxal eliminated [4]: Approximately 99%; concentrations of dicarbonyl compounds in mixed solution ([5]; 200 μM each dicarbonyl, glutathione 0-5 mM, glyoxalase I 0-2 unit/ml, 37° C., 1 hour): Decrease in the concentrations of dicarbonyl compounds was observed; elimination of 3-deoxyglucosone in the mixed solution of three dicarbonyl compounds ([5]; coexistence of methylglyoxal and glyoxal, 200 μM each): decreased; concentrations of dicarbonyl compounds in solutions containing one dicarbonyl compound [6]: concentrations of dicarbonyl compounds decreased"
